Assay results published in PMC7774954, “Interactomic affinity profiling by holdup assay: Acetylation and distal residues impact the PDZome-binding specificity of PTEN phosphatase” (PLoS ONE, 2020).
pKd: −log10 of the molar value. *1 amine or outer side, *2 acyl side, *3 side chain or, on linkers, in order; H or OH if unused. Where a SMILES comes first, the peptide text is derived from it. The star is where a group is joined. X1 = O=C(CCCC[C@@H]1SC[C@@H]2NC(=O)N[C@@H]21)NCCCOCCOCCOCCCN*; Suc = O=C(CCC(=O)[*:2])[*:1]

Assays:
INADL-5 = experiment: Holdup assay, INADL-5; assay type: binding, human
FRMPD3-1 = experiment: Holdup assay, FRMPD3-1; assay type: binding, human
LIN7C-1 = experiment: Holdup assay, LIN7C-1; assay type: binding, human
APBA3-2 = experiment: Holdup assay, APBA3-2; assay type: binding, human
MAGI1 PDZ 3 = biological target: T1, MAGI1 PDZ 3 (Homo sapiens, UniProt Q96QZ7); experiment: Holdup assay, MAGI1-3; assay type: binding; conditions: for BI: MAGI1-3
T1 construct: made in house; host or cells: E. coli
Method: (§1) The holdup assay was performed on a Tecan freedom Evo200 robot with 384-well plates in singlicate for the three 11-mer PTEN variants and the 13-mer PTEN peptide as described in [31, 32]. Briefly, prior to interaction assay, 2.5 μL of streptavidin resin was saturated in each well with 20 μL of biotinylated PBM peptides (42 μM) and then washed twice with an excess of free biotin, while the reference resin was incubated only with biotin. Right before the holdup experiment, the PDZ library was spiked with an internal standard of lysozyme. Then, the biotin- or PBM-saturated resin was incubated, each in a distinct well of a 384-well plate, with complete cell lysates diluted so that the concentration of the tag-PDZ present in the crude extract is adjusted at 4 μM. After a sufficient time to reach complex equilibrium (15 min.), a fast and mild filtration step is performed and the tag-PDZ concentrations were measured by capillary electrophoresis instrument (LabChip GXII, PerkinElmer, Massachusets, USA). Standard markers were used to convert migration time into molecular weight on the LabChip software and inappropriate molecular weight markers were corrected or excluded.
(§2) For filtered data, the BI was extracted with the following equation (Eq 1) that estimates the depleted fraction after superimposition of the sample and reference electropherograms: BI=Iref−Ilig/Iref (1) where Iref and Ilig are the intensities of the tag-PDZ peaks measured, for each PDZ domain/PBM peptide interaction pair, in the biotin reference and the PBM electropherograms, respectively.
(§3) BIs were transformed into dissociation constants (KD) using the following formula: KD=([PDZtot]−BI·[PDZtot])·([PBMtot]−BI·[PDZtot])/BI·[PDZtot] (2) where [PDZtot] and [PBMtot] correspond to the total concentrations of the PDZ domain (usually around 4 μM) and the PBM peptide used during the assay. Since the PBMtot concentration in the resin during the holdup assay parameter may differ from one peptide to another and remains unknown, it is impossible to directly convert BI values into KD constants. We systematically determined the KD constants for a subset of PDZ/PBM pairs by competitive FP. […] For each PBM, the average peptide concentration was calculated after outlier rejection based on the absolute distances from the median as compared to three times the standard deviation (3σ rule), with never more than 2 values rejected.

LIN7B-1 = experiment: Holdup assay, LIN7B-1; assay type: binding, human
MAGI3-5 = biological target: T2, MAGI3-5 (Homo sapiens, UniProt Q5TCQ9); experiment: Holdup assay, MAGI3-5; assay type: binding
T2 sequence (Q5TCQ9 1-1481): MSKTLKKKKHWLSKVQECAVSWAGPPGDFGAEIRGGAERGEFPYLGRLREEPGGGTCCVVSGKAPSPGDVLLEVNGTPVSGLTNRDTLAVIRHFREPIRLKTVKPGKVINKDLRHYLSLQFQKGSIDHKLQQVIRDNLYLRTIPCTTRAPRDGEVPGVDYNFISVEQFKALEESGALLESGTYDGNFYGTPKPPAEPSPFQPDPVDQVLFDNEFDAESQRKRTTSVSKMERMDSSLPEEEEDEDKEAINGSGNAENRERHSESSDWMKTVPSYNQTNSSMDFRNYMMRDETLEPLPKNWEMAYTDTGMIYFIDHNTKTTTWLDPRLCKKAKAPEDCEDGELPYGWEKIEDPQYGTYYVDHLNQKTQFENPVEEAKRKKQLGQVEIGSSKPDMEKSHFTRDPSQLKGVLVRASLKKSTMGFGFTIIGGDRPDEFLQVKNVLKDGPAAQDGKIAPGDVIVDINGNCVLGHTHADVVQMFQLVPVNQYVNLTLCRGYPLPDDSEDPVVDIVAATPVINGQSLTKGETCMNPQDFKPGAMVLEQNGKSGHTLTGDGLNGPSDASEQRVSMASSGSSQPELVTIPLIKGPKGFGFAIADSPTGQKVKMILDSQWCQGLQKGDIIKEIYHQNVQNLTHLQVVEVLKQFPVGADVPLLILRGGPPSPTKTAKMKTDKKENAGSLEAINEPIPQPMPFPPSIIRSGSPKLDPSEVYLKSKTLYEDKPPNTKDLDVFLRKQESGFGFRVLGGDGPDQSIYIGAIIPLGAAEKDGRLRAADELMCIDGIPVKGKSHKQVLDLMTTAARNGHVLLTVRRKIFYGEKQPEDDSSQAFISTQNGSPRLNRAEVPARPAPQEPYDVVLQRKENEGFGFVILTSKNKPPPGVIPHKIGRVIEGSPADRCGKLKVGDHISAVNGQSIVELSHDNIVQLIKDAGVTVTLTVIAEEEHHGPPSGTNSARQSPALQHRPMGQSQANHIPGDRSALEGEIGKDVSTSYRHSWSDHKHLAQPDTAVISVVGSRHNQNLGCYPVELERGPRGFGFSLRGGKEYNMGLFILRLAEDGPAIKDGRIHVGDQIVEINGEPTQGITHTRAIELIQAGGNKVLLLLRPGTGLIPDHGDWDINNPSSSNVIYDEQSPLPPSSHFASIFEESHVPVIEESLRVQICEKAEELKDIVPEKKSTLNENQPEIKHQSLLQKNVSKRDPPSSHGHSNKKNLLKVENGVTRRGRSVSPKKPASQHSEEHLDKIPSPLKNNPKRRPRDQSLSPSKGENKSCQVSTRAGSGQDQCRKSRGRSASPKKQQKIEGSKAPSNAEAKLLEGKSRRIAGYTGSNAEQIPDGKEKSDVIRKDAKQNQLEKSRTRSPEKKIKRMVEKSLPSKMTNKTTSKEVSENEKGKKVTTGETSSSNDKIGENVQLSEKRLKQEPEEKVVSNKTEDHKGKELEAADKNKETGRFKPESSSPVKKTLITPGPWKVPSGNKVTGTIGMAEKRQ

MAGI3-4 = experiment: Holdup assay, MAGI3-4; assay type: binding, human
DLG4 PDZ 3 = biological target: T3, DLG4 PDZ 3 (Homo sapiens, UniProt P78352); experiment: Holdup assay, DLG4-3; assay type: binding
T3 construct: made in house; host or cells: E. coli
Method: as §1, §2, §3

GRIP2-7 = experiment: Holdup assay, GRIP2-7; assay type: binding, human
NHERF2 PDZ 1 = biological target: T4, NHERF2 PDZ 1 (Homo sapiens, UniProt Q15599); experiment: Holdup assay, NHERF2-1; assay type: binding; conditions: PDZ domain NHERF2-1
T4 construct: made in house; host or cells: E. coli
Method: as §1, §2, §3

T4 sequence (Q15599 11-90 limits assumed): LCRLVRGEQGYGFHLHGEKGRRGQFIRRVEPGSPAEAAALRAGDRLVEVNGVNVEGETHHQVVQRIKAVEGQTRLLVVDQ
T3 sequence (P78352 313-393 limits assumed): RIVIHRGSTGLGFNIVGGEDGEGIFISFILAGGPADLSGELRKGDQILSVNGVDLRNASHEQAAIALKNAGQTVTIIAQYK
T1 sequence (Q96QZ7 643-721 limits assumed): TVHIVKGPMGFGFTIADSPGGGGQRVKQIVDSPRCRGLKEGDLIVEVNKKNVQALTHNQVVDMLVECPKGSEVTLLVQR

## CC[C@H](C)[C@H](NC(=O)[C@H](CCC(N)=O)NC(=O)[C@@H](NC(=O)[C@H](Cc1c[nH]cn1)NC(=O)[C@H](CCC(N)=O)NC(=O)[C@H](CC(=O)O)NC(=O)[C@H](CCC(=O)O)NC(=O)[C@H](CC(=O)O)NC(=O)CCC(=O)NCCCOCCOCCOCCCNC(=O)CCCC[C@@H]1SC[C@@H]2NC(=O)N[C@@H]21)[C@@H](C)O)C(=O)N[C@H](C(=O)N[C@@H](CCCCN)C(=O)N[C@H](C(=O)O)C(C)C)[C@@H](C)O [PTEN_11]
INADL-5
  BI: -0.044
  LogKD: 3.519
FRMPD3-1
  BI: -0.078
  LogKD: 3.519
LIN7C-1
  BI: -0.041
  LogKD: 3.519
APBA3-2
  BI: 0.086
  LogKD: 3.519
MAGI1 PDZ 3
  pKd: 4.53
  BI: 0.519
LIN7B-1
  BI: -0.046
  LogKD: 3.519
MAGI3-5
  BI: 0.097
  LogKD: 3.519
MAGI3-4
  BI: -0.092
  LogKD: 3.519
DLG4 PDZ 3
  BI: -0.018
GRIP2-7
  BI: -0.067
  LogKD: 3.519
NHERF2 PDZ 1
  BI: 0.099

## CC[C@H](C)[C@H](NC(=O)[C@H](CCC(N)=O)NC(=O)[C@@H](NC(=O)[C@H](Cc1c[nH]cn1)NC(=O)[C@H](CCC(N)=O)NC(=O)[C@H](CC(=O)O)NC(=O)[C@H](CCC(=O)O)NC(=O)[C@H](CC(=O)O)NC(=O)[C@H](Cc1ccccc1)NC(=O)[C@@H]1CCCN1C(=O)CCC(=O)NCCCOCCOCCOCCCNC(=O)CCCC[C@@H]1SC[C@@H]2NC(=O)N[C@@H]21)[C@@H](C)O)C(=O)N[C@H](C(=O)N[C@@H](CCCCN)C(=O)N[C@H](C(=O)O)C(C)C)[C@@H](C)O [PTEN_13] ({X1-Suc}-PFDEDQHTQITKV-OH)
INADL-5
  BI: -0.039
FRMPD3-1
  BI: -0.096
LIN7C-1
  BI: -0.105
APBA3-2
  BI: 0.046
MAGI1 PDZ 3
  pKd: 4.98
  BI: 0.584
LIN7B-1
  BI: -0.079
MAGI3-5
  BI: […]
  LogKD: […]
MAGI3-4
  BI: -0.112
DLG4 PDZ 3
  BI: -0.097
GRIP2-7
  BI: -0.039
NHERF2 PDZ 1
  BI: 0.11

## CC[C@H](C)[C@H](NC(=O)[C@H](CCC(N)=O)NC(=O)[C@@H](NC(=O)[C@H](Cc1c[nH]cn1)NC(=O)[C@H](CCC(N)=O)NC(=O)[C@H](CC(=O)O)NC(=O)[C@H](CCC(=O)O)NC(=O)[C@H](CC(=O)O)NC(=O)CCC(=O)NCCCOCCOCCOCCCNC(=O)CCCC[C@@H]1SC[C@@H]2NC(=O)N[C@@H]21)[C@@H](C)O)C(=O)N[C@H](C(=O)N[C@@H](CCCCNC(C)=O)C(=O)N[C@H](C(=O)O)C(C)C)[C@@H](C)O [PTEN_Ac]
INADL-5
  BI: -0.076
  LogKD: 3.605
FRMPD3-1
  BI: -0.12
  LogKD: 3.605
LIN7C-1
  BI: 0.012
  LogKD: 3.605
APBA3-2
  BI: 0.024
  LogKD: 3.605
MAGI1 PDZ 3
  pKd: 5.00
  BI: 0.715
LIN7B-1
  BI: -0.004
  LogKD: 3.605
MAGI3-5
  BI: 0.21
  pKd: 3.99
MAGI3-4
  BI: -0.101
  LogKD: 3.605
DLG4 PDZ 3
  BI: -0.024
GRIP2-7
  BI: -0.07
  LogKD: 3.605
NHERF2 PDZ 1
  BI: 0.078

## CC[C@H](C)[C@H](NC(=O)[C@H](CCC(N)=O)NC(=O)[C@@H](NC(=O)[C@H](Cc1c[nH]cn1)NC(=O)[C@H](CCC(N)=O)NC(=O)[C@H](CC(=O)O)NC(=O)[C@H](CCC(=O)O)NC(=O)[C@H](CC(=O)O)NC(=O)CCC(=O)NCCCOCCOCCOCCCNC(=O)CCCC[C@@H]1SC[C@@H]2NC(=O)N[C@@H]21)[C@@H](C)O)C(=O)N[C@H](C(=O)N[C@@H](CCCNC(=N)N)C(=O)N[C@H](C(=O)O)C(C)C)[C@@H](C)O [PTEN_KR] ({X1-Suc}-DEDQHTQITRV-OH)
INADL-5
  BI: -0.046
  LogKD: 3.655
FRMPD3-1
  BI: -0.082
  LogKD: 3.655
LIN7C-1
  BI: -0.071
  LogKD: 3.655
APBA3-2
  BI: 0.086
  LogKD: 3.655
MAGI1 PDZ 3
  pKd: 4.83
  BI: 0.605
LIN7B-1
  BI: -0.078
  LogKD: 3.655
MAGI3-5
  BI: 0.165
MAGI3-4
  BI: -0.011
  LogKD: 3.655
DLG4 PDZ 3
  BI: 0.043
GRIP2-7
  BI: -0.066
  LogKD: 3.655
NHERF2 PDZ 1
  BI: 0.169
